Measured values: US20240043859A1, “HERBICIDE-RESISTANT PROTEIN, AND GENE AND USE THEREOF” (QINGDAO KINGAGROOT CHEMICAL COMPOUND CO., LTD., priority 2020, published 2024)
“Also recorded” adds a separate entry of the source.

Test system: Arabidopsis thaliana
Assay: Spray testing of T2 generation transgenic Arabidopsis thaliana
Type: in vivo
Conditions: 100 g/ha foliage spray, 10 days after spraying
From the text: The T2 generation seedlings of four representative transformants, pQY2309, pQY2310, pQY2311 and pQY2313, were selected for further spray testing. Four lines were randomly selected from the T2 generation generated by transformation of each vector, and respectively foliage-sprayed with 2,4-D (100 g/ha), MCPA (100 g/ha) and 2,4-DB sodium (100 g/ha) when Arabidopsis thaliana seeds germinated, transplanted and the seedlings grew to 5-7 leaf. Non-transgenic wild-type Col-0 served as a negative control. The level of resistance was assessed 10 days after spraying.

O=C(O)COc1ccc(Cl)cc1Cl [2,4-D, (2,4-dichlorophenoxy)acetic acid, reference compound]
Effect of the herbicide spray on wild-type Col-0: all or almost all non-transgenic wild-type Arabidopsis thaliana died; also recorded: all die
